Results published in the supplement of paper PMC10307832.

Legend:
Assay in all cases: relative viability (nuclei count vs DMSO), 5 days (fraction); higher = more cells survive
Omipalisib = compound: COc1ncc(-c2ccc3nccc(-c4ccnnc4)c3c2)cc1NS(=O)(=O)c1ccc(F)cc1F [Omipalisib]
In short: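 Only plates meeting two conditions passed: control CV below 25% and at least one doubling. Lung cancer cell lines, kept overnight at 37 °C in 1536-well plates, were pinned with five library-drug doses (not always all listed) √10 apart on vehicle-anchored plates and grown 5 days without medium change. A one-step fix, permeabilisation and Hoechst stain preceded 4× imaging and MetaXpress nuclear counting. Viability equals treated-well nuclei divided by vehicle-well nuclei, as the median over plates.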

Omipalisib + Bortezomib = compound: COc1ncc(-c2ccc3nccc(-c4ccnnc4)c3c2)cc1NS(=O)(=O)c1ccc(F)cc1F [Omipalisib] + CC(C)C[C@H](NC(=O)[C@H](Cc1ccccc1)NC(=O)c1cnccn1)B(O)O [Bortezomib] (partner 0.002 µM)
In short: (§1)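 Lung cancer cell lines in 1536-well plates were dosed by pin tool the day after seeding, either with one drug alone or with a fixed anchor-drug dose plus five library-drug doses (not always all listed) in √10 steps. After 5 days, cells were fixed and their nuclei stained in one step (final 0.05% Triton X-100, 1% formaldehyde, 1 ug/ml Hoechst), then counted on 4× images. Relative viability is the nuclei count in treated wells divided by that in vehicle wells. Values are medians of duplicate plates.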

Omipalisib + Navitoclax = compound: COc1ncc(-c2ccc3nccc(-c4ccnnc4)c3c2)cc1NS(=O)(=O)c1ccc(F)cc1F [Omipalisib] + CC1(C)CCC(c2ccc(Cl)cc2)=C(CN2CCN(c3ccc(C(=O)NS(=O)(=O)c4ccc(N[C@H](CCN5CCOCC5)CSc5ccccc5)c(S(=O)(=O)C(F)(F)F)c4)cc3)CC2)C1 [Navitoclax] (partner 0.5 µM)
In short: as §1

Omipalisib + Foretinib = compound: COc1ncc(-c2ccc3nccc(-c4ccnnc4)c3c2)cc1NS(=O)(=O)c1ccc(F)cc1F [Omipalisib] + COc1cc2c(Oc3ccc(NC(=O)C4(C(=O)Nc5ccc(F)cc5)CC4)cc3F)ccnc2cc1OCCCN1CCOCC1 [Foretinib] (partner 0.25 µM)
In short: as §1

Omipalisib + Lapatinib = compound: COc1ncc(-c2ccc3nccc(-c4ccnnc4)c3c2)cc1NS(=O)(=O)c1ccc(F)cc1F [Omipalisib] + CS(=O)(=O)CCNCc1ccc(-c2ccc3ncnc(Nc4ccc(OCc5cccc(F)c5)c(Cl)c4)c3c2)o1 [Lapatinib] (partner 2 µM)
In short: as §1

Omipalisib + Pictilisib = compound: COc1ncc(-c2ccc3nccc(-c4ccnnc4)c3c2)cc1NS(=O)(=O)c1ccc(F)cc1F [Omipalisib] + CS(=O)(=O)N1CCN(Cc2cc3nc(-c4cccc5[nH]ncc45)nc(N4CCOCC4)c3s2)CC1 [Pictilisib] (partner 1 µM)
In short: as §1

Omipalisib + Crizotinib = compound: COc1ncc(-c2ccc3nccc(-c4ccnnc4)c3c2)cc1NS(=O)(=O)c1ccc(F)cc1F [Omipalisib] + C[C@@H](Oc1cc(-c2cnn(C3CCNCC3)c2)cnc1N)c1c(Cl)ccc(F)c1Cl [Crizotinib] (partner 1 µM)
In short: as §1

Omipalisib + Linsitinib = compound: COc1ncc(-c2ccc3nccc(-c4ccnnc4)c3c2)cc1NS(=O)(=O)c1ccc(F)cc1F [Omipalisib] + C[C@]1(O)C[C@@H](c2nc(-c3ccc4ccc(-c5ccccc5)nc4c3)c3c(N)nccn32)C1 [Linsitinib] (partner 1 µM)
In short: as §1

Omipalisib + Alpelisib = compound: COc1ncc(-c2ccc3nccc(-c4ccnnc4)c3c2)cc1NS(=O)(=O)c1ccc(F)cc1F [Omipalisib] + Cc1nc(NC(=O)N2CCC[C@H]2C(N)=O)sc1-c1ccnc(C(C)(C)C(F)(F)F)c1 [Alpelisib] (partner 2 µM)
In short: as §1

Omipalisib + AZD7762 = compound: COc1ncc(-c2ccc3nccc(-c4ccnnc4)c3c2)cc1NS(=O)(=O)c1ccc(F)cc1F [Omipalisib] + NC(=O)Nc1cc(-c2cccc(F)c2)sc1C(=O)N[C@H]1CCCNC1 [AZD7762] (partner 0.2 µM)
In short: as §1

Omipalisib + Olaparib = compound: COc1ncc(-c2ccc3nccc(-c4ccnnc4)c3c2)cc1NS(=O)(=O)c1ccc(F)cc1F [Omipalisib] + O=C(c1cc(Cc2n[nH]c(=O)c3ccccc23)ccc1F)N1CCN(C(=O)C2CC2)CC1 [Olaparib] (partner 8 µM)
In short: as §1

Omipalisib + Trametinib = compound: COc1ncc(-c2ccc3nccc(-c4ccnnc4)c3c2)cc1NS(=O)(=O)c1ccc(F)cc1F [Omipalisib] + CC(=O)Nc1cccc(-n2c(=O)n(C3CC3)c(=O)c3c(Nc4ccc(I)cc4F)n(C)c(=O)c(C)c32)c1 [Trametinib] (partner 0.02 µM)
In short: as §1

Omipalisib + Palbociclib = compound: COc1ncc(-c2ccc3nccc(-c4ccnnc4)c3c2)cc1NS(=O)(=O)c1ccc(F)cc1F [Omipalisib] + CC(=O)c1c(C)c2cnc(Nc3ccc(N4CCNCC4)cn3)nc2n(C2CCCC2)c1=O [Palbociclib] (partner 0.5 µM)
In short: as §1

Omipalisib + Luminespib = compound: COc1ncc(-c2ccc3nccc(-c4ccnnc4)c3c2)cc1NS(=O)(=O)c1ccc(F)cc1F [Omipalisib] + CCNC(=O)c1noc(-c2cc(C(C)C)c(O)cc2O)c1-c1ccc(CN2CCOCC2)cc1 [Luminespib] (partner 0.01 µM)
In short: as §1

Omipalisib + OSI-027 = compound: COc1ncc(-c2ccc3nccc(-c4ccnnc4)c3c2)cc1NS(=O)(=O)c1ccc(F)cc1F [Omipalisib] + COc1cccc2cc(-c3nc([C@H]4CC[C@H](C(=O)O)CC4)n4ncnc(N)c34)[nH]c12 [OSI-027] (partner 0.5 µM)
In short: as §1

Omipalisib + Tozasertib = compound: COc1ncc(-c2ccc3nccc(-c4ccnnc4)c3c2)cc1NS(=O)(=O)c1ccc(F)cc1F [Omipalisib] + Cc1cc(Nc2cc(N3CCN(C)CC3)nc(Sc3ccc(NC(=O)C4CC4)cc3)n2)n[nH]1 [Tozasertib] (partner 0.1 µM)
In short: as §1

Omipalisib + Dasatinib = compound: COc1ncc(-c2ccc3nccc(-c4ccnnc4)c3c2)cc1NS(=O)(=O)c1ccc(F)cc1F [Omipalisib] + Cc1nc(Nc2ncc(C(=O)Nc3c(C)cccc3Cl)s2)cc(N2CCN(CCO)CC2)n1 [Dasatinib] (partner 0.075 µM)
In short: as §1

Omipalisib + Phenformin = compound: COc1ncc(-c2ccc3nccc(-c4ccnnc4)c3c2)cc1NS(=O)(=O)c1ccc(F)cc1F [Omipalisib] + N=C(N)NC(=N)NCCc1ccccc1 [Phenformin] (partner 250 µM)
In short: as §1

Omipalisib + Pemetrexed = compound: COc1ncc(-c2ccc3nccc(-c4ccnnc4)c3c2)cc1NS(=O)(=O)c1ccc(F)cc1F [Omipalisib] + Nc1nc2[nH]cc(CCc3ccc(C(=O)N[C@@H](CCC(=O)O)C(=O)O)cc3)c2c(=O)[nH]1 [Pemetrexed] (partner 0.2 µM)
In short: as §1

Omipalisib + Decitabine = compound: COc1ncc(-c2ccc3nccc(-c4ccnnc4)c3c2)cc1NS(=O)(=O)c1ccc(F)cc1F [Omipalisib] + Nc1ncn([C@H]2C[C@H](O)[C@@H](CO)O2)c(=O)n1 [Decitabine] (partner 2 µM)
In short: as §1

Omipalisib + Vorinostat = compound: COc1ncc(-c2ccc3nccc(-c4ccnnc4)c3c2)cc1NS(=O)(=O)c1ccc(F)cc1F [Omipalisib] + O=C(CCCCCCC(=O)Nc1ccccc1)NO [Vorinostat] (partner 1 µM)
In short: as §1

In the case of NCI-H1703, the relative viability (Omipalisib; 0.0003 µM) is reported as 0.777, the relative viability (Omipalisib; 0.003 µM) is reported as 0.572 and the relative viability (Omipalisib; 0.03 µM) is reported as 0.234. It also gave a relative viability (Omipalisib + Bortezomib; first compound 0.0003 µM) of 0.323, a relative viability (Omipalisib + Bortezomib; first compound 0.003 µM) of 0.268 and a relative viability (Omipalisib + Bortezomib; first compound 0.03 µM) of 0.153. For the same cell line, the relative viability (Omipalisib + Navitoclax; first compound 0.0003 µM) was 0.713, the relative viability (Omipalisib + Navitoclax; first compound 0.003 µM) was 0.651 and the relative viability (Omipalisib + Navitoclax; first compound 0.03 µM) was 0.24. The relative viability (Omipalisib + Foretinib; first compound 0.0003 µM) was 0.314, the relative viability (Omipalisib + Foretinib; first compound 0.003 µM) was 0.37 and the relative viability (Omipalisib + Foretinib; first compound 0.03 µM) was 0.301. It also gave a relative viability (Omipalisib + Lapatinib; first compound 0.0003 µM) of 0.879, a relative viability (Omipalisib + Lapatinib; first compound 0.003 µM) of 0.715 and a relative viability (Omipalisib + Lapatinib; first compound 0.03 µM) of 0.293. The relative viability (Omipalisib + Pictilisib; first compound 0.0003 µM) was 0.218, the relative viability (Omipalisib + Pictilisib; first compound 0.003 µM) was 0.238 and the relative viability (Omipalisib + Pictilisib; first compound 0.03 µM) was 0.202. For the same cell line, the relative viability (Omipalisib + Crizotinib; first compound 0.0003 µM) was 0.707, the relative viability (Omipalisib + Crizotinib; first compound 0.003 µM) was 0.418 and the relative viability (Omipalisib + Crizotinib; first compound 0.03 µM) was 0.128. It also gave a relative viability (Omipalisib + Linsitinib; first compound 0.0003 µM) of 0.596, a relative viability (Omipalisib + Linsitinib; first compound 0.003 µM) of 0.298 and a relative viability (Omipalisib + Linsitinib; first compound 0.03 µM) of 0.171. The relative viability (Omipalisib + Alpelisib; first compound 0.0003 µM) was 0.428, the relative viability (Omipalisib + Alpelisib; first compound 0.003 µM) was 0.273 and the relative viability (Omipalisib + Alpelisib; first compound 0.03 µM) was 0.179. For the same cell line, the relative viability (Omipalisib + AZD7762; first compound 0.0003 µM) was 0.152, the relative viability (Omipalisib + AZD7762; first compound 0.003 µM) was 0.115 and the relative viability (Omipalisib + AZD7762; first compound 0.03 µM) was 0.111. It also gave a relative viability (Omipalisib + Olaparib; first compound 0.0003 µM) of 0.28, a relative viability (Omipalisib + Olaparib; first compound 0.003 µM) of 0.279 and a relative viability (Omipalisib + Olaparib; first compound 0.03 µM) of 0.214.

Cell Line NCI-H2342 has a relative viability (Omipalisib; 0.0003 µM) of 0.741, a relative viability (Omipalisib; 0.003 µM) of 0.63 and a relative viability (Omipalisib; 0.03 µM) of 0.534. The relative viability (Omipalisib + Trametinib; first compound 0.0003 µM) was 0.732, the relative viability (Omipalisib + Trametinib; first compound 0.003 µM) was 0.583 and the relative viability (Omipalisib + Trametinib; first compound 0.03 µM) was 0.449. The relative viability (Omipalisib + Palbociclib; first compound 0.0003 µM) was 0.459, the relative viability (Omipalisib + Palbociclib; first compound 0.003 µM) was 0.442 and the relative viability (Omipalisib + Palbociclib; first compound 0.03 µM) was 0.406. It also gave a relative viability (Omipalisib + Luminespib; first compound 0.0003 µM) of 0.622, a relative viability (Omipalisib + Luminespib; first compound 0.003 µM) of 0.45 and a relative viability (Omipalisib + Luminespib; first compound 0.03 µM) of 0.446. For the same cell line, the relative viability (Omipalisib + Foretinib; first compound 0.0003 µM) was 0.816, the relative viability (Omipalisib + Foretinib; first compound 0.003 µM) was 0.688 and the relative viability (Omipalisib + Foretinib; first compound 0.03 µM) was 0.453. For the same cell line, the relative viability (Omipalisib + OSI-027; first compound 0.0003 µM) was 0.569, the relative viability (Omipalisib + OSI-027; first compound 0.003 µM) was 0.516 and the relative viability (Omipalisib + OSI-027; first compound 0.03 µM) was 0.467. It also gave a relative viability (Omipalisib + Tozasertib; first compound 0.0003 µM) of 0.425, a relative viability (Omipalisib + Tozasertib; first compound 0.003 µM) of 0.442 and a relative viability (Omipalisib + Tozasertib; first compound 0.03 µM) of 0.354. It also gave a relative viability (Omipalisib + Dasatinib; first compound 0.0003 µM) of 0.298, a relative viability (Omipalisib + Dasatinib; first compound 0.003 µM) of 0.294 and a relative viability (Omipalisib + Dasatinib; first compound 0.03 µM) of 0.243. It also gave a relative viability (Omipalisib + Phenformin; first compound 0.0003 µM) of 0.56, a relative viability (Omipalisib + Phenformin; first compound 0.003 µM) of 0.482 and a relative viability (Omipalisib + Phenformin; first compound 0.03 µM) of 0.424. The relative viability (Omipalisib + AZD7762; first compound 0.0003 µM) was 0.47, the relative viability (Omipalisib + AZD7762; first compound 0.003 µM) was 0.434 and the relative viability (Omipalisib + AZD7762; first compound 0.03 µM) was 0.383. For the same cell line, the relative viability (Omipalisib + Pemetrexed; first compound 0.0003 µM) was 0.69, the relative viability (Omipalisib + Pemetrexed; first compound 0.003 µM) was 0.568 and the relative viability (Omipalisib + Pemetrexed; first compound 0.03 µM) was 0.451. The relative viability (Omipalisib + Decitabine; first compound 0.0003 µM) was 0.589, the relative viability (Omipalisib + Decitabine; first compound 0.003 µM) was 0.479 and the relative viability (Omipalisib + Decitabine; first compound 0.03 µM) was 0.408. It also gave a relative viability (Omipalisib + Vorinostat; first compound 0.0003 µM) of 0.678, a relative viability (Omipalisib + Vorinostat; first compound 0.003 µM) of 0.536 and a relative viability (Omipalisib + Vorinostat; first compound 0.03 µM) of 0.499. The relative viability (Omipalisib + Olaparib; first compound 0.0003 µM) was 0.411, the relative viability (Omipalisib + Olaparib; first compound 0.003 µM) was 0.376 and the relative viability (Omipalisib + Olaparib; first compound 0.03 µM) was 0.239.
